Assay: solubility in aqueous media
Type: physicochemical
Details: qualitative statement

Structure (SMILES): O.O=C(Nc1ccccc1F)NC1N=C(c2ccccc2)c2ccccc2NC1=O.O=S(=O)(O)c1ccccc1 (centres unmarked) [RSV604 Besylate Monohydrate Salt, 1-(2-Fluoro-phenyl)-3-(2-oxo-5-phenyl-2,3-dihydro-1H-benzo[e][1,4]diazepin-3-yl)-urea besylate monohydrate]
- solubility in aqueous media: particularly good solubility properties

Structure (SMILES): O=C(Nc1ccccc1F)NC1N=C(c2ccccc2)c2ccccc2NC1=O (centres unmarked) [RSV604 free base, 1-(2-Fluoro-phenyl)-3-(2-oxo-5-phenyl-2,3-dihydro-1H-benzo[e][1,4]diazepin-3-yl)-urea]
- solubility in aqueous media: low solubility

— patent publication US7977330B2, “Salts and crystal modifications thereof” (Novartis AG, priority 2006, dated 2011)
